Where no end group is shown, it is not given here.
Tests used:
E. coli ATCC 25922 = test: In vivo efficacy, murine septicemia model; conditions: 10 CD-1 mice, up to 3 days
Description: CD-1 mice (7 weeks old, 27–28 g female) were used (Charles River, France). These animals were housed for a week of acclimation period before the experiment in a protected area in the ‘Centre de Zootechnie de l’Université de Bourgogne’ (Biosafety level 2 facility) and fed ad libitum according to the current recommendations by the European Institute of Health. Housing took place in rooms where a 12-h/12 h light/dark cycle is applied, the temperature ranges from 18 to 21°C and the relative humidity from 45 to 65%. The animal facility is authorized by the French authorities (Agreement N° C 21 464 04 EA). […]
For animal experiments, Bac7PS was synthesized at Genscript as acetate salt and with a purity of 92%. […] First, the maximum tolerated dose (MTD) for the peptide was determined by testing different peptide doses in 8 groups with 5 animals per group. The peptide solution was administered once by intraperitoneal (IP) injection with a volume of between 94 and 240 μl (depending on the weight of the animal and the dosage) and the animals were monitored for 2 h following the injection, then 6 to 8 h later, and then once or twice a day, depending on the clinical status, up to 5 days post-injection. […] As endpoint, the wellbeing and survival rate, on a twice daily based evaluation for up to 3 days, was monitored.

HEK 293 ribosomes = test: In vitro translation inhibition assay, HEK 293 S30 extract; assay type: biochemical, human; conditions: firefly luciferase mRNA, 800 to 0.08 μM, 1 h, 37°C, n = 9, p<10^−5, Wilcoxon
Description: To measure inhibition of the HEK 293 ribosome, an S30 extract was prepared from HEK 293-F cells. Suspension cultures of HEK 293-F cells (Gibco, Thermo Fisher) were maintained in 293 SFM II medium (Thermo Fisher) supplemented with 4 mM of L-glutamine according to the manufacturer’s instructions. Cells in the logarithmic phase were harvested by centrifugation for 18 min at 200 × g at 4°C. The cell pellet was washed twice with ice-cold PBS and pelleted again for 5 min at 200 × g at 4°C. Subsequently, cells were washed twice with ice-cold washing buffer (35 mM HEPES-KOH buffer pH 7.4, 146 mM NaCl, 11 mM D-(+)-glucose) and centrifuged for 5 min at 200 × g and 4°C. Cells were then resuspended in twice the volume of hypotonic buffer (20 mM HEPES-KOH buffer pH7.4, 10 mM KCl, 1.5 mM magnesium acetate, 1 mM DTT) and incubated for 10 min on ice. Cells were disrupted using a glass Dounce tissue homogenizer (Kimble, DWK Life Sciences, Mainz, Germany). After disruption, 0.1 volume of 10fold buffer (200 mM HEPES-KOH buffer pH 7.4, 1.2 M potassium acetate, 40 mM magnesium acetate, 50 mM DTT) of the total amount of hypotonic buffer was added. Cell debris was pelleted by centrifuging the lysate for 10 min at 700 × g at 4°C. The supernatant was then centrifuged for 15 min at 30,000 × g at 4°C.
(BIO-TEK FLx80, Witec AG, Littau, CH). […] Y=Bottom + (Top-Bottom)/(1+10^((X-LogIC50)))”.

With RRIRIRPPRLPRPRPRPYFMPRP [Bac7PS] the survival (E. coli ATCC 25922; 10 mg kg^−1 IP twice (1 and 4 h post-infection)) was 60%, the survival (E. coli ATCC 25922; 30 mg kg^−1 IP twice (1 and 4 h post-infection)) was 80% and the “mean increase in ribosomal binding (translation inhibition IC50), HEK 293 ribosomes, compared to Bac7_1-23” value (HEK 293 ribosomes) was 38%.
